The record followed here is patent US20070043034A1, “Chlorine Ion Uptake Modulators and Uses Thereof” (priority 2005, published 2007).

The assay concerns 8.5 mM potassium-induced epileptiform activity in hippocampal slices. The experiment in a line: 8.5 mM K+ induced epileptiform activity in hippocampal slices in vitro. In kind it is cell-based, rat. To be noted: for decrease of averaged power of epileptiform activity: bumetanide 10 μM. An excerpt: In this example, the effects of phenobarbital on recurrent interictal and ictal-like epileptiform activity in the hippocampal slices in vitro from P7-12 rats were studied. Interictal and ictal-like epileptiform activity are typical parameters studied when analyzing seizure activity in control and treated subjects. Phenobarbital exerts its pharmacological effects by allosteric activation of the GABAA receptor, increasing the duration of chloride ion channel opening, without affecting the frequency of opening or channel conductance. Simultaneous multi-site extracellular field potential records were performed in the CA3 pyramidal cell layer. To induce progressive neuronal firing, a bath application of 8.5 mM K+ was applied to the sections that developed to recurrent interictal and ictal-like epileptiform activities (FIG. 2A-2D). […] The power of extracellular field potential during 8.5 mM K+ (potassium) induced epileptiform activity in 0.1-1000 Hz frequency band, that include both gamma and fast ripple oscillations (FIG. 2A-2D).
In one exemplary method, experimental procedures were carried out on hippocampal slices of postnatal days 5 (P5) to P12 male Wistar rats. Animals were anaesthetized and decapitated and hippocampal slices were prepared by known methods. For example, hippocampal transverse slices were cut using Leica VT-100E vibratome (Leica Microsystems Nussloch GmbH, Germany) and kept in oxygenated aCSF at room temperature at least 1 hr before use. Hippocampal slices posterior to the midtemporal (caudal) part of the hippocampus (Paxinos and Watson, 1986) were used in the study.
In one example, electrophysiological recordings are gathered from individual slices and subsequently transferred to a conventional submerged-type chamber and continuously superfused with, for example, oxygenated aCSF. Whole-cell recordings were generated. Patch electrodes were used, made by known methods. For whole-cell recording in voltage-clamp mode pipettes were filled with a buffered solution.
From the example outlined above, extracellular field potentials were recorded and microelectrodes known in the art were used for simultaneous recordings of multiple unit activity (e.g. MUA; 500 Hz high-pass filter), population field activity in EEG band (1-100 Hz), and fast ripple oscillations (200-600 Hz).).
In one experimental example, bumetanide was tested for suppression of a 8.5 mM potassium-induced epileptiform activity in hippocampal slices from P7-9 and PI0-12 rats. […] Averaged power of epileptiform activity was decreased by 71±2.1% (n=9, p=1.57E-12) in P7-9 rat hippocampal slices and by 41.9±1.5% (n=6, p=2.13E-11) at P10-P12 (FIG. 3C).
In another aspect of this example, pharmaceutical compositions of the present invention may be tested for effects on the GABAA receptor using for example a GABAA-R antagonist before, during or after treatment with the pharmaceutical composition. In one example, GABAA receptor antagonists prevented the effect of bumetanide on power of epileptiform activity in the hippocampal slices from neonatal rats (FIGS. 3B and 3D). […] Here, an inhibition of synchronous network activity by bumetanide treatment in the perinatal hippocampal slices in this in vitro experiment was observed and these affects were partially reversed after treatment with bicuculline.

`CCCCNc1cc(C(=O)O)cc(S(N)(=O)=O)c1Oc1ccccc1` [bumetanide, 3-(aminosulfonyl)-5-(butylamino)-4-phenoxybenzoic acid]: the “decrease of averaged power of epileptiform activity” value (P7-9 rat hippocampal slices, n=9) is given as 71±2.1% and the “decrease of averaged power of epileptiform activity” value (P10-P12 rat hippocampal slices, n=6) came to 41.9±1.5%. Also, the “increase of IED frequency” value (bumetanide 10 μM in the presence of bicuculline 10 μM, P7-9 slices, n=6, p=0.008) was 22.8 ± 6.4%. Moreover, the “decrease of IED length” value (bumetanide 10 μM in the presence of bicuculline 10 μM, P7-9 slices, p=0.8) came out at 2.2±8%. Besides, under “bumetanide 10 μM in the presence of bicuculline 10 μM, p=0.35”, the “averaged power of epileptiform discharges” value is “did not change”. Also, the “effect on epileptiform activity” value was “strongly suppressed interictal and ictal-like epileptiform activity” (hippocampal slices from P7-9 rats, bath application phenobarbital 100 μM (n=6) or bumetanide 10 μM (n=10)); “depressed ictal-like epileptiform activity” (hippocampal slices from P10-12 rats, bath application phenobarbital 100 μM (n=7) or bumetanide 10 μM (n=6)).
